The text below walks through data of patent US8592421B2, “Cyclic bioisosters of purine system derivatives and a pharmaceutical composition based thereon” (priority 2003, dated 2013).

In data set [1] the test system is thrombocytes. The experiment in a line: ADP-induced aggregation of thrombocytes in vitro (Born method, plasma enriched with thrombocytes). The data set is classed as cell-based, rabbit. To be noted: 3-minute incubation, ADP 10^−5 M. The method, then:
The aggregation of thrombocytes was studied by the Born method based on determination of the changes in the optical density of plasma enriched with thrombocytes after its incubation with an aggregation inductor.
Adenozinediphosphoric acid (ADP) was selected as an aggregation inductor, which in fact is an aggregation generator. Use was made of a sample (registration number 885) of the Sigma Diagnostics Company (USA) in final concentration of 10^−5 M.
The experiments were carried out on male rabbits of the “Chinchilla” breed having a mass of 2.7±0.3 kg. 18-24 hours prior to the experiment they were deprived of feed while preserving free access to water.
To obtain plasma enriched with thrombocytes, blood was taken from a cut of a marginal vein of the rabbit ear, the sample was stabilized with 3.8% of sodium citrate solution in a ratio of 9:1 and centrifuged at 200 g (1000 rev/min) for 10 minutes. The top supernatant layer enriched with thrombocytes was transferred by an automatic dropper into a silicone test tube and kept at 37° C. The plasma enriched with thrombocytes contained, on the average, […]. If this content exceeded the specified 3×10^8 blood platelets in 1 liter, this sample was diluted to the necessary concentration with plasma deprived of thrombocytes, which was obtained by centrifuging blood at 650 g during 10 minutes.
The measurements of the optical density of the samples were made on two-channel aggregometer of the “Chronolog” Company (USA). A flask containing 490 mkl of plasma rich with thrombocytes was placed in a device, into which a magnetic agitator covered with Teflon was lowered. The index of maximum amplitude of aggregation (MA) in percent of a fall of the plasma optical density under effect of the aggregation inductor was recorded. The control index MA of plasma was compared with the MA of plasma incubated for 3 minutes with different concentrations of the compounds: from 10^−3 to 10^−7 in vitro experiments or with plasma obtained 15, 30, 60 and 120 minutes after intravenous administration of different doses of the compounds in vivo experiments.
The process of aggregation of thrombocytes was recorded with the help of a computer; on the monitor screen the there were depicted curves reflecting changes of the optical density of the plasma enriched which was taken as a standard 100% compared to the optical density of the non-thrombocyte plasma taken for 0% content of thrombocytes.
Under in vitro conditions a flask was filled with blood plasma enriched with thrombocytes, to which an aggregation inductor ADP was added at a concentration of 10^−5 M, incubated for 3 minutes, and then the compounds according to the invention were introduced directly into the flask. Their action by aggregation of thrombocytes was studied after 3-minute incubation in a wide range of concentrations from 10^−3 to 10^−7 M to minimum concentration of 10^−7M not inducing no effect of suppressing the aggregation.

The nature of data set [2]: Electrochemical activity: polarographic reduction on mercury dripping electrode. The conditions noted are these: for i: 2.0% sodium chloride background, 9·10^−4 M; for i / −E1/2: 37° C., forward trace, average for the group of compounds; for −E1/2: vs SCE. The data set is classed as physicochemical.
The test system of data set [3] is plasma hemostasis. Put plainly: Prothrombin time after intravenous administration. The format is in vivo, rabbit. To be noted: for effect on the prothrombin time index: doses of 15.0, 30.0, 60.0 mg/kg. The method, then:
The static parameters of the blood and plasma coagulation (partial activated thromboplastin time, thrombin time, maximum coagulation activity (test for auto coagulation) were determined using the Behnk Electronic coagulometer (Germany). The operating principle of this instrument is based on the fact that the formed blood clot breaks the contacts of the pulse counter in the flask-pin circuit, said pin permanently oscillating in a vertical plane. The moment of formation of the clot is registered by stopping the stop watch hand.
The measurements were effected at a constant temperature of 37° C. maintained by a temperature control unit.
The method of its determination is based on estimation of the coagulation of citrate or oxalic blood plasma, when it is mixed with thromboplastin and a calcium chloride solution. Since under these conditions the time of formation of the clot depends on the content of II, VII, IX and X factors in the investigated plasma sample, now the test is called “thromboplastin time by Quick” or “activity thromboplastin complex”.
Citrate blood containing 1 part of citrate per 9 parts of native blood was centrifuged at 3000 rev/min for 10 minutes to obtain plasma deprived of thrombocytes.
Added into a test tube in a water bath were 0.1 ml of plasma and 0.1 ml of a thromboplastin solution.

Where [4] appears, read: 15.0 mg/kg intravenously, after 15 minutes, control 11.8 ± 0.1.
Setting [5] is: 15.0 mg/kg intravenously, after 30 minutes, control 11.8 ± 0.1.
The mark [6] stands for this setting: 15.0 mg/kg intravenously, after 60 minutes, control 11.8 ± 0.1.
Setting [7] is: 15.0 mg/kg intravenously, after 120 minutes, control 11.8 ± 0.1.
The mark [8] stands for this setting: 30.0 mg/kg intravenously, after 15 minutes, control 11.2 ± 0.1.
Where [9] appears, read: 30.0 mg/kg intravenously, after 30 minutes, control 11.2 ± 0.1.
The mark [10] stands for this setting: 30.0 mg/kg intravenously, after 60 minutes, control 11.2 ± 0.1.
The mark [11] stands for this setting: 30.0 mg/kg intravenously, after 120 minutes, control 11.2 ± 0.1.
Setting [12] is: 60.0 mg/kg intravenously, after 15 minutes, control 12.0 ± 0.1.
The mark [13] stands for this setting: 60.0 mg/kg intravenously, after 30 minutes, control 12.0 ± 0.1.
The mark [14] stands for this setting: 60.0 mg/kg intravenously, after 60 minutes, control 12.0 ± 0.1.
Setting [15] is: 60.0 mg/kg intravenously, after 120 minutes, control 12.0 ± 0.1.

With `Nc1cccc2c(=O)[nH][nH]c(=O)c12.[Na]` [Compound 15, sodium salt of 5-amino-benzo[d]-3H-pyridazine-1,4-dione], the “MA - fall of optical density of plasma, % to the standard” value came out at 44.8 ± 2.8 % in data set [1] (10^−3 M, control 60.8 ± 3.4); 46.3 ± 1.7 % in data set [1] (10^−4 M, control 60.0 ± 2.1); 39.8 ± 3.1 % in data set [1] (10^−5 M, control 52.5 ± 2.1). Besides, the “MA - drop of optical density, %” value was determined as 47.3 ± 1.8 % in data set [1] (10^−6 M, control 52.8 ± 1.8) and 49.3 ± 1.4% in data set [1] (10^−7 M, control 51.5 ± 2.1). The “number of electrons participating in the reduction reaction” value in data set [2] (calculated with Geirovsky-Ilkovich equation) is given as 4.09. The i in data set [2] (pH 7.0) is 0.23 ± 0.03 mkA; in data set [2] (pH 7.2), 0.30 ± 0.01 mkA; in data set [2] (pH 7.4), 0.29 ± 0.02 mkA; in data set [2] (pH 7.6) it was 0.31 ± 0.02 mkA. For the same compound, the “−E1/2” value in data set [2] (pH 7.0) is 0.092 ± 0.02 V; in data set [2] (pH 7.2) it was 0.09 ± 0.01 V; in data set [2] (pH 7.4) it was 0.092 ± 0.02 V; in data set [2] (pH 7.6), 0.09 ± 0.01 V. Besides, the “half-wave potential more positive at reverse stroke compared to forward stroke” value in data set [2] (polarograms of reverse stroke) was determined as 30.0 mV. Moreover, the “prothrombin time, T” value is 11.5 ± 0.2 s in data set [3] (setting [4]); 11.7 ± 0.2 s in data set [3] (setting [5]); 11.2 ± 0.2 s in data set [3] (setting [6]); 11.5 ± 0.2 s in data set [3] (setting [7]); 11.0 ± 0.2 s in data set [3] (setting [8]); 11.2 ± 0.2 s in data set [3] (setting [9]). Further, the “prothrombin time, T” value in data set [3] (setting [10]) was determined as 11.4 ± 0.2 s; in data set [3] (setting [11]), 11.3 ± 0.2 s; in data set [3] (setting [12]), 12.0 ± 0.1 s; in data set [3] (setting [13]), 12.0 ± 0.1 s; in data set [3] (setting [14]), 12.0 ± 0.2 s; in data set [3] (setting [15]), 12.0 ± 0.1 s. In addition, the “effect on the prothrombin time index” value in data set [3] is listed as “have no effect on the prothrombin time index”.

With `Nc1cnc2c(=O)n([C@@H]3O[C@H](CO)[C@@H](O)[C@H]3O)[nH]c(=O)c2n1.[Na]` [Compound 21, sodium salt of 3-amino-7-(β-D-ribofuranosile)pyrazine[2,3-d]-6H-pyridazine-5,8-dione], the “MA - fall of optical density of plasma, % to the standard” value in data set [1] (10^−3 M, control 60.8 ± 3.4) came to 47.1 ± 3.0 %; in data set [1] (10^−4 M, control 60.0 ± 2.1), 49.2 ± 2.1 %; in data set [1] (10^−5 M, control 52.5 ± 2.1), 41.8 ± 2.4 %. The “MA - drop of optical density, %” value in data set [1] (10^−6 M, control 52.8 ± 1.8) turned out to be 49.6 ± 1.7%; in data set [1] (10^−7 M, control 51.5 ± 2.1), 49.7 ± 2.1%. For the same compound, the “prothrombin time, T” value in data set [3] (setting [4]) was 11.4 ± 0.2 s; in data set [3] (setting [5]) it was 11.5 ± 0.1 s; in data set [3] (setting [6]), 11.3 ± 0.1 s; in data set [3] (setting [7]), 11.5 ± 0.2 s; in data set [3] (setting [8]), 11.2 ± 0.1 s; in data set [3] (setting [9]) it was 11.2 ± 0.1 s. Further, the “prothrombin time, T” value in data set [3] (setting [10]) amounted to 11.3 ± 0.2 s; in data set [3] (setting [11]), 11.2 ± 0.2 s; in data set [3] (setting [12]), 12.0 ± 0.2 s; in data set [3] (setting [13]), 11.8 ± 0.1 s; in data set [3] (setting [14]), 12.1 ± 0.1 s; in data set [3] (setting [15]), 12.0 ± 0.2 s. In data set [3], the “effect on the prothrombin time index” value is listed as “have no effect on the prothrombin time index”.
